Assay results from patent publication US20070105840A1, “Pyrrolo-dihydroisoquinoline derivatives as pde10 inhibitors” (Altana Pharma AG, priority 2003, published 2007).

| SMILES | melting point [°C] |
| --- | --- |
| COc1cc2c(cc1OC)-c1c(C)c(-c3cc(C)c(O)c(C)c3)c(C)n1CC2 [Example 68, 4-(8,9-Dimethoxy-1,3-dimethyl-5,6-dihydro-pyrrolo[2,1-a]isoquinolin-2-yl)-2,6-dimethyl-phenol] | 183 to 185 |
| CCOC(=O)c1c(-c2cc(C)c(O)c(C)c2)c(C)n2c1-c1cc(OC)c(OC)cc1CC2CC (racemic) [Example 6, (5RS)-5-Ethyl-2-(4-hydroxy-3,5-dimethyl-phenyl)-8,9-dimethoxy-3-methyl-5,6-dihydro-pyrrolo[2,1-a]isoquinoline-1-carboxylic acid ethyl ester] | 164 to 166 |
| CCOC(=O)c1c(-c2cccc3ccccc23)c(C)n2c1-c1cc(OC)c(OC)cc1CC2C (racemic) [Example 11, (5RS)-8,9-Dimethoxy-3,5-dimethyl-2-naphthalen-1-yl-5,6-dihydro-pyrrolo[2,1-a]isoquinoline-1-carboxylic acid ethyl ester] | 184 |
| COc1cc2c(cc1OC)-c1c(C#N)c(-c3ccc(C(N)=O)cc3)c(C)n1C(C)C2 (centres unmarked) [Example 52, 4-(1-Cyano-8,9-dimethoxy-3,5-dimethyl-5,6-dihydro-pyrrolo[2,1-a]isoquinolin-2-yl)-benzamide] | 228 to 230 |
| CCOC(=O)c1c(-c2cccc3ccccc23)c(CCC(=O)OC)n2c1-c1cc(OC)c(OC)cc1CC2C (racemic) [Example 20, (5RS)-8,9-Dimethoxy-3-(2-methoxycarbonyl-ethyl)-5-methyl-2-naphthalen-1-yl-5,6-dihydro-pyrrolo[2,1-a]isoquinoline-1-carboxylic acid ethyl ester] | 56 to 59 |
| COc1cc2c(cc1OC)-c1c(C#N)c(-c3cc(C(C)(C)C)c(O)c(C(C)(C)C)c3)c(C)n1CC2 [Example 25, 2-(3,5-Di-tert-butyl-4-hydroxy-phenyl)-8,9-dimethoxy-3-methyl-5,6-dihydro-pyrrolo[2,1-a]isoquinoline-1-carbonitrile] | 250 to 252 |
| CCOC(=O)c1c(-c2ccnc3ccccc23)c(C)n2c1-c1cc(OC)c(OC)cc1C1CCCCC12 (stereo not drawn) [Example 13, (4aRS,8aRS)-cis-10,11-Dimethoxy-3-methyl-2-quinolin-4-yl-4a,5,6,7,8,8a-hexahydro-pyrrolo[2,1-f]phenanthridine-1-carboxylic acid ethyl ester] | 153 to 157 |
| CCOc1cc2c(cc1OC)-c1c(C#N)c(-c3cc(C)c(O)c(C)c3)c(C)n1C(C)C2 (centres unmarked) [Example 53, 8-Ethoxy-2-(4-hydroxy-3,5-dimethyl-phenyl)-9-methoxy-3,5-dimethyl-5,6-dihydro-pyrrolo[2,1-a]isoquinoline-1-carbonitrile] | 232 to 234 |
| COc1cc2c(cc1OC)-c1c(C#N)c(-c3ccc(NS(C)(=O)=O)cc3)c(C)n1C(C)C2 (centres unmarked) [Example 59, N-[4-(1-Cyano-8,9-dimethoxy-3,5-dimethyl-5,6-dihydro-pyrrolo[2,1-a]isoquinolin-2-yl)-phenyl]-methanesulfonamide] | 257 to 259 |
| COc1cc2c(cc1OC)-c1c(C#N)c(-c3ccncc3C)c(C)n1C(C)C2 (centres unmarked) [Example 49, 8,9-Dimethoxy-3,5-dimethyl-2-(3-methyl-pyridin-4-yl)-5,6-dihydro-pyrrolo[2,1-a]isoquinoline-1-carbonitrile] | 232 to 233 |
| COc1cc2c(cc1OC)-c1c(C#N)c(-c3ccc(O)cc3C)c(C)n1C(C)C2 (centres unmarked) [Example 51, 2-(4-Hydroxy-2-methyl-phenyl)-8,9-dimethoxy-3,5-dimethyl-5,6-dihydro-pyrrolo[2,1-a]isoquinoline-1-carbonitrile] | 228 to 230 |
| COc1cc2c(cc1OC)-c1c(C#N)c(-c3ccc([N+](=O)[O-])cc3)c(C)n1C(C)C2 (centres unmarked) [Example 46, 8,9-Dimethoxy-3,5-dimethyl-2-(4-nitro-phenyl)-5,6-dihydro-pyrrolo[2,1-a]isoquinoline-1-carbonitrile] | 206 to 207 |

The remaining lines, values ahead:

| melting point [°C] | SMILES |
| --- | --- |
| 232 to 234 | COC(=O)CCc1c(-c2ccnc3ccccc23)c(C#N)c2n1CCc1cc(OC)c(OC)cc1-2 [Example 31, 3-(1-Cyano-8,9-dimethoxy-2-quinolin-4-yl-5,6dihydro-pyrrolo[2,1-a]isoquinolin-3-yl)-propionic acid methyl ester] |
| 268 to 270 | COc1cc2c(cc1OC)-c1c(C#N)c(-c3cc(C)c(O)c(C)c3)c(C)n1C(C)C2 (centres unmarked) [Example 28, 2-(4-Hydroxy-3,5-dimethyl-phenyl)-8,9-dimethoxy-3,5-dimethy-5,6-dihydro-pyrrolo[2,1-a]isoquinoline-1-carbonitrile] |
| 177 to 179 | COC(=O)c1c(-c2cc(C)c(O)c(C)c2)c(C)n2c1-c1cc(OC)c(OC)cc1CC2C (centres unmarked) [Example 65, 2-(4-Hydroxy-3,5-dimethyl-phenyl)-8,9-dimethoxy-3,5-dimethyl-5,6-dihydro-pyrrolo[2,1-a]isoquinoline-1-carboxylic acid methyl ester] |
| 187 to 189 | COc1cc2c(cc1OC)-c1c(C#N)c(-c3ccnc(C)c3)c(C)n1C(C)C2 (centres unmarked) [Example 45] |
| 304 to 307 | COc1cc2c(cc1OC)-c1c(C#N)c(-c3c[nH]c4ccccc34)c(C)n1CC2 [Example 24, 2-(1H-indol-3-yl)-8,9-dimethoxy-3-methyl-5,6-dihydro-pyrrolo[2,1-a]isoquinoline-1-carbonitrile] |
| 217 to 219 | COC(=O)CCc1c(-c2cc(C)c(O)c(C)c2)c(C#N)c2n1CCc1cc(OC)c(OC)cc1-2 [Example 32, 3-[1-Cyano-2-(4-hydroxy-3,5-dimethyl-phenyl)-8,9-dimethoxy-5,6-dihydro-pyrrolo[2,1-a]isoquinolin-3-yl]-propionic acid methyl ester] |
| 189 to 191 | CCOC(=O)c1c(-c2cccc3ccccc23)c(C)n2c1-c1cc(OC)c(OC)cc1C1CCCCC12 (stereo not drawn) [Example 12, (4aRS,8aRS)-cis-10,11-Dimethoxy-3-methyl-2-naphthalen-1-yl-4a,5,6,7,8,8a-hexahydro-pyrrolo[2,1-f]phenanthridine-1-carboxylic acid ethyl ester] |
| 226 to 229 | COc1cc2c(cc1OC)-c1c(C#N)c(-c3cccc4ccccc34)c(C)n1CC2 [Example 22, 8,9-Dimethoxy-3-methyl-2-naphthalen-1-yl-5,6-dihydro-pyrrolo[2,1-a]isoquinoline-1-carbonitrile] |
| 237 to 239 | COc1cc2c(cc1OC)-c1c(C#N)c(-c3ccc(N)cc3)c(C)n1C(C)C2 (centres unmarked) [Example 48, 2-(4-Amino-phenyl)-8,9-dimethoxy-3,5-dimethyl-5,6-dihydm-pyrrolo[2,1-a]isoquinoline-1-carbonitrile] |
| 236 to 237 | COc1cc2c(cc1OC)-c1c(C#N)c(-c3cn(S(=O)(=O)N(C)C)c4ccccc34)c(C)n1C(C)C2 (centres unmarked) [Example 54, 3-(1-Cyano-8,9-dimethoxy-3,5-dimethyl-5,6-dihydro-pyrrolo[2,1-a]isoquinolin-2-yl)-indole-1-sulfonic acid dimethylamide] |
| 186 to 192 | CCOC(=O)c1c(-c2cc(C)c(O)c(C)c2)c(C)n2c1-c1cc(OC)c(OC)cc1C1CCCCC12 (stereo not drawn) [Example 8, (4aRS,8aRS)-cis-2-(4-hydroxy-3,5-dimethyl-phenyl)-10,11-dimethoxy-3-methyl-4a,5,6,7,8,8a-hexahydro-pyrrolo[2,1-f]phenanthridine-1-carboxylic acid ethyl ester] |
